Where two headings read alike, the source gives them in different places.
Molecular target: T1, GluA2 Q607S (Homo sapiens, UniProt P42262, Q607S)
T1 construct: host or cells: HEK-293T/17
Assay type: cell-based
Conditions: GluA2 Q-S; for normalized conductance (G-V, Figure 5g), Avg: Na vs Na; for I-V current, Na vs Na, Avg of recordings: Figure 5b

T1 sequence (P42262 25-883 Q607S): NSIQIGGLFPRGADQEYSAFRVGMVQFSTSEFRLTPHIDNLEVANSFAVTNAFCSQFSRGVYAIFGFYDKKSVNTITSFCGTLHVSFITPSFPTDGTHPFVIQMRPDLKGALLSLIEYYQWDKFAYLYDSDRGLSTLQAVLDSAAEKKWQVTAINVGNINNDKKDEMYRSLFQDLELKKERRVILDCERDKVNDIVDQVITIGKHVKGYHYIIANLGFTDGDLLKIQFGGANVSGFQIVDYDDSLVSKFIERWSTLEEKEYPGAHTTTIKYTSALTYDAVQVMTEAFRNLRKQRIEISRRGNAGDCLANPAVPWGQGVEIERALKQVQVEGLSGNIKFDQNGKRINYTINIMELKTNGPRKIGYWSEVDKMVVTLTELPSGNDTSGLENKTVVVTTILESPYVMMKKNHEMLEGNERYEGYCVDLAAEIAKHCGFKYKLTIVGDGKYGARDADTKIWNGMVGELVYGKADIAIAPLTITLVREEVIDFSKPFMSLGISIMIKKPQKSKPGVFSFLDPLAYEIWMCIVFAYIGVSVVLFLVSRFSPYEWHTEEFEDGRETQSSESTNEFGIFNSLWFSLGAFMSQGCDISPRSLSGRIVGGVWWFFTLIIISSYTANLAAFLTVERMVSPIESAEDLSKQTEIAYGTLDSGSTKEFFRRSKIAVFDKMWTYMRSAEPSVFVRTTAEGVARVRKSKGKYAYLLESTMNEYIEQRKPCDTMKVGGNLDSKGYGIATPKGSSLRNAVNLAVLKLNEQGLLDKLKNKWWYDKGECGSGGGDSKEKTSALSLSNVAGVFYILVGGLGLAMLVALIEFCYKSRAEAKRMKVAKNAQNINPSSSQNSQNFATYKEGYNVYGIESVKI

## [Na+] [Na]
Vm 0.00
  normalized conductance (G-V, Figure 5g), Avg: 0.29
  I-V current, Na vs Na, Avg of recordings: -0.0234
Vm 20.00
  normalized conductance (G-V, Figure 5g), Avg: 0.39
  I-V current, Na vs Na, Avg of recordings: 0.09
Vm 40.00
  normalized conductance (G-V, Figure 5g), Avg: 0.47
  I-V current, Na vs Na, Avg of recordings: 0.23
Vm 60.00
  normalized conductance (G-V, Figure 5g), Avg: 0.53
  I-V current, Na vs Na, Avg of recordings: 0.41
Vm 80.00
  normalized conductance (G-V, Figure 5g), Avg: 0.52
  I-V current, Na vs Na, Avg of recordings: 0.57
Vm -20.00
  normalized conductance (G-V, Figure 5g), Avg: 0.28
  I-V current, Na vs Na, Avg of recordings: -0.10
Vm -40.00
  normalized conductance (G-V, Figure 5g), Avg: 0.39
  I-V current, Na vs Na, Avg of recordings: -0.20
Vm -60.00
  normalized conductance (G-V, Figure 5g), Avg: 0.63
  I-V current, Na vs Na, Avg of recordings: -0.35
Vm -80.00
  normalized conductance (G-V, Figure 5g), Avg: 1.00
  I-V current, Na vs Na, Avg of recordings: -0.61
